According to article PMC4899609, “Spectroscopic and Docking Studies on the Binding of Liquiritigenin with Hyaluronidase for Antiallergic Mechanism” (Scientifica, 2016):

Columns and labels:
Hyaluronidase (HAase) [1] = molecular target: T1, Hyaluronidase (HAase); assay: modified Morgan-Elson colorimetric assay (DMAB, […] nm); format: biochemical; settings: hyaluronic acid sodium 0.5 mg mL^−1; HAase 500 U mL^−1; CaCl2 12.5 mM; 37 °C
T1 construct: gene SPAM1; ovine testis or bacterial possible; human HYAL1 2PE4 was only the docking model

Hyaluronidase (HAase) [2] = test system: T1, Hyaluronidase (HAase); assay: intrinsic fluorescence quenching, excitation […] nm; format: binding; settings: 293 K; sodium phosphate buffer pH 7.4; HAase 2.0 × 10^−6 mol L^−1; n 1.0623; double-log

- IC50 (Hyaluronidase (HAase) [1]): 680 ± 43 µM
- K a (Hyaluronidase (HAase) [2]): 39537 L/mol
Structure (SMILES): O=C1C[C@@H](c2ccc(O)cc2)Oc2cc(O)ccc21 [liquiritigenin]
